A short description of experiment [1]: NIH3T3 cell viability loss – ATP luminescence, mouse fibroblasts, counter-screen, dose response (AID 2010).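 Note: cells exposed to compound for about 90 hours before reading.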 Format: functional, cell-based. On the technique in general: Counterscreens check selectivity or assay interference.
Experiment [2] has as its target Serine/threonine-protein phosphatase (Homo sapiens, UniProt Q9BPW0). The experiment is described as follows: inhibition of protein phosphatase 5 activity – biochemical, fluorescence, dose response (AID 2395).
Experiment [3] concerns the target T1, SUMO-activating enzyme (Homo sapiens, UniProt Q9UBT2). Briefly: blockers of UBC9-mediated SUMO conjugation – biochemical, AlphaScreen, SUMOylation inhibitor project, confirmation (AID 2018). Format: functional. In general terms: In Alpha technology, singlet oxygen from a donor bead excites a nearby acceptor bead.
For experiment [4], the target named is T1, SUMO-activating enzyme. Briefly: blockers of SAE1/SAE2–UBC9 SUMO transfer – biochemical, HTRF, uHTS, primary screen (AID 2006). It counts as protein-complex assay. A general note: Time-resolved FRET reads energy transfer from a long-lived donor to a nearby acceptor.
Another experiment deals with INS1. Briefly: INS-1E survival protection against cytokine death – cell-based, luminescence, retest, dose response (AID 449756).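 Note: cell death triggered by IL-1 beta plus TNF-alpha plus IFN-gamma mixture; protective hits raise ATP signal compared with cytokine alone wells.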 As to conditions: Rattus norvegicus. Format: functional.
Experiment [5] has as its target Serine/threonine-protein phosphatase PP1-alpha catalytic subunit (Homo sapiens, UniProt P62136). The experiment is described as follows: inhibition of protein phosphatase 1 activity – biochemical, fluorescence, dose response (AID 2394).
Experiment [6] deals with T2, Mitochondrial peptide methionine sulfoxide reductase (Bos taurus, UniProt P54149).
T2 sequence (P54149 whole entry): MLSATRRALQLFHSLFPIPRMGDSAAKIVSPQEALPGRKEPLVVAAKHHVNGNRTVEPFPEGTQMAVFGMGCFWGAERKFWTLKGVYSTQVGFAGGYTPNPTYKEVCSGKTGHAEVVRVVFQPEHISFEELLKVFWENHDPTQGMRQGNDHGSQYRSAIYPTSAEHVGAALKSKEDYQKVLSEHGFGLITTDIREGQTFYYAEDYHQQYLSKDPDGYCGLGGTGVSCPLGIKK
It counts as functional.

Experiment [7] concerns the target T3, Apoptotic protease-activating factor 1 (Homo sapiens, UniProt O14727).
T3 sequence (O14727 whole entry): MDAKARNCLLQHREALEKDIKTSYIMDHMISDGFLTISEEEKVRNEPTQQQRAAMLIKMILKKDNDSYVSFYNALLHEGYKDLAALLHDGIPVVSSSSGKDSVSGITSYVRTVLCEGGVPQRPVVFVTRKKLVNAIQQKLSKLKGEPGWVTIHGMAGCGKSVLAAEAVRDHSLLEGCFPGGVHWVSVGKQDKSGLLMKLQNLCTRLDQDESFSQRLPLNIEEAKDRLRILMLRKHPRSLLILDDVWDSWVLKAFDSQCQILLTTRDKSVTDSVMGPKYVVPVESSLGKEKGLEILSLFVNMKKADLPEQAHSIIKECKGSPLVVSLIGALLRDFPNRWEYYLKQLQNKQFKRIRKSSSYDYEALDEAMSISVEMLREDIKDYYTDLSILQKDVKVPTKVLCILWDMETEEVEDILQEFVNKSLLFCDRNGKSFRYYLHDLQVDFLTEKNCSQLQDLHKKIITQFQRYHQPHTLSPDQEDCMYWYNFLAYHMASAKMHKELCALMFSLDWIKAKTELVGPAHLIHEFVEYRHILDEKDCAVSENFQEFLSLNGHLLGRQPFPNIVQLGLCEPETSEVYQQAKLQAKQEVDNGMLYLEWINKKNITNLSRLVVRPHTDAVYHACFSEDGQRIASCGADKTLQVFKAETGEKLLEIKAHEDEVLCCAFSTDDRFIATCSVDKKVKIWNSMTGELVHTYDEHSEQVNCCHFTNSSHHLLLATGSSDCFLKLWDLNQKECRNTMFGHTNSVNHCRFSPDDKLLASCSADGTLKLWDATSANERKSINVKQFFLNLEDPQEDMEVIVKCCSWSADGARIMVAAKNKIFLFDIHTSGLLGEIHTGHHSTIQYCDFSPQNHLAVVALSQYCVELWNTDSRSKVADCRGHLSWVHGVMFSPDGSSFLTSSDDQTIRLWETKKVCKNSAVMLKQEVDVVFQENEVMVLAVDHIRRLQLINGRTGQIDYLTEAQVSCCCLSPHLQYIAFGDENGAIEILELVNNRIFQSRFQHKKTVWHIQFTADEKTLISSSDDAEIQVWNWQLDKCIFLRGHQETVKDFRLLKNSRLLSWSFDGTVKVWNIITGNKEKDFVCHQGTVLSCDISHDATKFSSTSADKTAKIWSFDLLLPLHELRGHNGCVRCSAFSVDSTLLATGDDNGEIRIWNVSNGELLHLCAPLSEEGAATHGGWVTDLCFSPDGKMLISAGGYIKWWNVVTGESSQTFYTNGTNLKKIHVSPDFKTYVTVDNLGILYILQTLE
It counts as functional.

For experiment [8], the target named is Heat shock protein HSP 90-alpha (Homo sapiens, UniProt P07900). Briefly: Luminescence-based dose response biochemical high throughput screening assay for inhibitors of the Heat Shock Protein 90 (HSP90). [Related pubchem assays: 1831 (Summary AID.), 1846 (Confirmation screen.), 1789 (Primary screen.)].
A further experiment concerns the target T4, Hexokinase HKDC1 (Homo sapiens, UniProt Q2TB90).
T4 sequence (Q2TB90 whole entry): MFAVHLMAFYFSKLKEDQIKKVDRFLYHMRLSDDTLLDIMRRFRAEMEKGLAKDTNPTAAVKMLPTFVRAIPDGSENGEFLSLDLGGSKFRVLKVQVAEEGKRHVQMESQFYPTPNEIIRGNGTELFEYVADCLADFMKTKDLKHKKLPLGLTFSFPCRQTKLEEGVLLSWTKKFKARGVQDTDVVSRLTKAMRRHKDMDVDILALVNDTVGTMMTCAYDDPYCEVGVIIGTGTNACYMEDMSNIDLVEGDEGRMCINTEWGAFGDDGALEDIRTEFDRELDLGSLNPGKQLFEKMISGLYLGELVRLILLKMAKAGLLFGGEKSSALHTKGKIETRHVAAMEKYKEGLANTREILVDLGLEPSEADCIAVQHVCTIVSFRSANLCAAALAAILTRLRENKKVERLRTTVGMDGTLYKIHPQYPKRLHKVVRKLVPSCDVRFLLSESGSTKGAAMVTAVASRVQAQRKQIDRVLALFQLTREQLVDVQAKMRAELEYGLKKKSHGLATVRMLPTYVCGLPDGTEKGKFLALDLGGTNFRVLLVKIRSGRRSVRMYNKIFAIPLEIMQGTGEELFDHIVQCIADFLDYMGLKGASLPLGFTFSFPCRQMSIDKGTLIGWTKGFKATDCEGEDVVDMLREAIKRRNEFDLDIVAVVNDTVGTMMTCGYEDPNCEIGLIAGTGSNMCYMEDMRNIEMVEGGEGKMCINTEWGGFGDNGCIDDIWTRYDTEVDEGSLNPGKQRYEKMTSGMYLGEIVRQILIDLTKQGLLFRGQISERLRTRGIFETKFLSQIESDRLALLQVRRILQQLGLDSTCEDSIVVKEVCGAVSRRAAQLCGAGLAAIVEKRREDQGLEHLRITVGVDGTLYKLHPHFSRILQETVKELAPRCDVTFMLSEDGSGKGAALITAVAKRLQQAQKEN
The experiment is described as follows: inhibition of HKDC1 glucose phosphorylation – biochemical, W721R variant, dose response (AID 504729). Format: functional.

The nature of experiment [9]: Trypanosoma cruzi growth suppression in host cells – NIH3T3 host cells, beta-gal luminescence, confirmation (AID 2044).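 Note: intracellular parasites grown in NIH/3T3 mouse fibroblasts as host cells; luminescent beta-galactosidase reporter signal from transgenic T. cruzi replicating inside host cells; inhibitors lower the luminescence signal.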 It counts as functional, cell-based.
The target in experiment [10] is Nucleotide-binding oligomerization domain-containing protein 2 (Homo sapiens, UniProt Q9HC29). The experiment is described as follows: PubChem AID 2334. Format: functional.
Nucleotide-binding oligomerization domain-containing protein 2, sequence (Q9HC29 whole entry, the tested form may be a part): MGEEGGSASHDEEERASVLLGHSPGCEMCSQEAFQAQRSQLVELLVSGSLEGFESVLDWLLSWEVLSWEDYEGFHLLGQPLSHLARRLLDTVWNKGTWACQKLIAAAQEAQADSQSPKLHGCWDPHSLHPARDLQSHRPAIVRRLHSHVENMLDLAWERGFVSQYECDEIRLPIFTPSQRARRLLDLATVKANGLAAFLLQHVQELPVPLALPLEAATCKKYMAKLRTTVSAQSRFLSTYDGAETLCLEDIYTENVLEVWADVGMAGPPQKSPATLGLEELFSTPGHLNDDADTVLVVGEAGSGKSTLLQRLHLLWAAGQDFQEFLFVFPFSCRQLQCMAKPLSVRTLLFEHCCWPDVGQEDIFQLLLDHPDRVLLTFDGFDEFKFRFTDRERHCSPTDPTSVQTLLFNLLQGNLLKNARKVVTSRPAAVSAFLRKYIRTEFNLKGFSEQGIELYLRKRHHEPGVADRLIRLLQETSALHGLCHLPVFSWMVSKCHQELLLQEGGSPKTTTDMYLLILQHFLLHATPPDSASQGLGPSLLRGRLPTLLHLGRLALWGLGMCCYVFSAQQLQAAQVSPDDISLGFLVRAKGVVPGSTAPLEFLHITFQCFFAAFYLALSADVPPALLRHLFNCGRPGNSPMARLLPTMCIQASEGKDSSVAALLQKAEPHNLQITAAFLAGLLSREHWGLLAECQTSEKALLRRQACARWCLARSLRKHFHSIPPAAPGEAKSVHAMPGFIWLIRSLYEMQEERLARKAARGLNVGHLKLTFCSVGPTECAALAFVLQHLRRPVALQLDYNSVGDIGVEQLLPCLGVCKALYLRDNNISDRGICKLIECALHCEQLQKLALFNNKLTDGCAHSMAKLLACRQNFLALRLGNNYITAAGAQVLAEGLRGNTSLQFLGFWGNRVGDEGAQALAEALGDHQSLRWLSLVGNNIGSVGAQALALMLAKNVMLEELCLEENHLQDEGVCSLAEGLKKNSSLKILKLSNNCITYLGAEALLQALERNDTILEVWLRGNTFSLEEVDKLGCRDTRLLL
Another experiment has as its target Tumor necrosis factor (Homo sapiens, UniProt P01375). Briefly: analog potency on TNFa NF-kB signaling – cell-based, revised, SAR follow-up (AID 2337). It counts as functional.
A short description of experiment [11]: HIV-1 AD8 envelope cell-cell fusion blockers – cherry-pick, dose response (AID 652062).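 Note: luciferase signal from cell-cell fusion driven by HIV-1 clade B AD8 Env; potency is for inhibitors of fusion seen as a drop in luminescence.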 Format: functional, cell-based.
The target in experiment [12] is T5, Nucleotide-binding oligomerization domain-containing protein 1 (Homo sapiens, UniProt Q9Y239).
T5 sequence (Q9Y239 whole entry): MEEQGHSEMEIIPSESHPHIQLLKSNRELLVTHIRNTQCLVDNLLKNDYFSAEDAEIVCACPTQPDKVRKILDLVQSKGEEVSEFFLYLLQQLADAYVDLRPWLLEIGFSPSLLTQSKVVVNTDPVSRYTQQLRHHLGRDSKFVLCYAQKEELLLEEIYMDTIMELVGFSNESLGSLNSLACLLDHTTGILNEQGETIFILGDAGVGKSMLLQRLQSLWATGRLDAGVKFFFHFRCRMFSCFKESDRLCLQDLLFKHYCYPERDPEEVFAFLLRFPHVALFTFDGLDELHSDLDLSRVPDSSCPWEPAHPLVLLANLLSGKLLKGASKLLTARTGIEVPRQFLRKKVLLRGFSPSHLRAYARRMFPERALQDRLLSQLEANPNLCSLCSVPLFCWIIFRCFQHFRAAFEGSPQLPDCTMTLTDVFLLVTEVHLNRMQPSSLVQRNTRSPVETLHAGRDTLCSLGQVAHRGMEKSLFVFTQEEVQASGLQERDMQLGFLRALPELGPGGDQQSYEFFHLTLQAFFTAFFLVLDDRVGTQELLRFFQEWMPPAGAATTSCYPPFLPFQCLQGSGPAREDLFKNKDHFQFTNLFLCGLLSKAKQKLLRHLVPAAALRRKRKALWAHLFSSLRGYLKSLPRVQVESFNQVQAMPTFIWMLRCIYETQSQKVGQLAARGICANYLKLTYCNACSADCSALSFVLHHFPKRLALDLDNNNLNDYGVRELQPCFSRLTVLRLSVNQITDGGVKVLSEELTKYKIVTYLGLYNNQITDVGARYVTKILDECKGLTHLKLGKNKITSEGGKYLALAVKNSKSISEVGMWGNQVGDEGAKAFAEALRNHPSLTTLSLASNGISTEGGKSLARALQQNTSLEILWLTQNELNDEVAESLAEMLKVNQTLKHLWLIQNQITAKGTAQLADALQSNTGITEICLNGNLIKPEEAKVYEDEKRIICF
Briefly: blockers of NOD1 pathway activity – revised, SAR follow-up (AID 2333). It counts as functional.

The next experiment deals with HEK293. The experiment is described as follows: cells. Particulars: Homo sapiens.
The target in experiment [13] is Metabotropic glutamate receptor 4 (Rattus norvegicus, UniProt P31423). The experiment is described as follows: Modulation of the Metabotropic Glutamate Receptor mGluR4: Rat PAM Potency. [Related pubchem assays (depositor defined):AID2437, AID2807]. It counts as functional.
Metabotropic glutamate receptor 4, sequence (P31423 whole entry): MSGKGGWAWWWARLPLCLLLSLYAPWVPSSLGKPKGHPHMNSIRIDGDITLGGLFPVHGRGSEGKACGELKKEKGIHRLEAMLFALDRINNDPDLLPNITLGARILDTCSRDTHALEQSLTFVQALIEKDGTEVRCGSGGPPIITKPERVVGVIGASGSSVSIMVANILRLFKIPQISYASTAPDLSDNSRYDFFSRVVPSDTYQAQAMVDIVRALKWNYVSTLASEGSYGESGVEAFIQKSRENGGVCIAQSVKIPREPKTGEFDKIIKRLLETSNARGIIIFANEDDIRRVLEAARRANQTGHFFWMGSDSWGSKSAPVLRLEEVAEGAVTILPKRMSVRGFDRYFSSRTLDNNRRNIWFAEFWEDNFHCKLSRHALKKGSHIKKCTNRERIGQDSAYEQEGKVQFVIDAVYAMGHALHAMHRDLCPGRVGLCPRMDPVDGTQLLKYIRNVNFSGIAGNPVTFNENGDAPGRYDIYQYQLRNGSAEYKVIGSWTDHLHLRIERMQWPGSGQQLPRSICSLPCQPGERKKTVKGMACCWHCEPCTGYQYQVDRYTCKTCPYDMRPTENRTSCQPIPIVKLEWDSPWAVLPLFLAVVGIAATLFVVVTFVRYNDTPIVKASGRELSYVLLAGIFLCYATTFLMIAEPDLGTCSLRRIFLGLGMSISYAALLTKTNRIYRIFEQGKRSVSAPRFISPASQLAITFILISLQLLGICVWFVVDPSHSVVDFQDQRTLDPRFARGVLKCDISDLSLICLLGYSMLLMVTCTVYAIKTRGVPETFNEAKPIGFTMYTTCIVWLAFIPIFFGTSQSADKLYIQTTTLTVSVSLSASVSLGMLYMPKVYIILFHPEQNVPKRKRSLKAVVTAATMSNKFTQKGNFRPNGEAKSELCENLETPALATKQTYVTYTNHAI
For experiment [14], the target named is Scavenger receptor class B member 1 (Mus musculus, UniProt Q61009). Briefly: mouse SR-BI DiI-HDL uptake blockers – ldlA[mSR-BI] cells, fluorescence, cherry pick, dose response (AID 493194).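 Note: cellular uptake of fluorescent DiI-labeled HDL measured as cell fluorescence.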 Format: functional, cell-based.
Scavenger receptor class B member 1, sequence (Q61009 whole entry): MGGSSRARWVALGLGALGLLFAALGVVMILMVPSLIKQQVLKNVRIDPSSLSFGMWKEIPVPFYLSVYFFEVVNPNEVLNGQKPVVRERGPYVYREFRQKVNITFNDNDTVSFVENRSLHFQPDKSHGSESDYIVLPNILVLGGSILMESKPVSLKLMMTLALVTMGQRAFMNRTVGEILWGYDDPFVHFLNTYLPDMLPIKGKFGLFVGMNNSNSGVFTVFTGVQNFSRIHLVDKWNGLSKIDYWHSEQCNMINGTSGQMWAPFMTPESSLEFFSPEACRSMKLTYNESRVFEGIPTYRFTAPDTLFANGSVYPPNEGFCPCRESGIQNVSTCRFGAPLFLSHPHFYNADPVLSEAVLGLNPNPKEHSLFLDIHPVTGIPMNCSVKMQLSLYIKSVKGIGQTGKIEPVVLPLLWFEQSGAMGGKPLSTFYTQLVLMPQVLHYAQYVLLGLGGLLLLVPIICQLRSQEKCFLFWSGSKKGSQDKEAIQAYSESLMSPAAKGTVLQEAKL

Active and inactive are the calls of the source.

T1 sequence (Q9UBE0 whole entry): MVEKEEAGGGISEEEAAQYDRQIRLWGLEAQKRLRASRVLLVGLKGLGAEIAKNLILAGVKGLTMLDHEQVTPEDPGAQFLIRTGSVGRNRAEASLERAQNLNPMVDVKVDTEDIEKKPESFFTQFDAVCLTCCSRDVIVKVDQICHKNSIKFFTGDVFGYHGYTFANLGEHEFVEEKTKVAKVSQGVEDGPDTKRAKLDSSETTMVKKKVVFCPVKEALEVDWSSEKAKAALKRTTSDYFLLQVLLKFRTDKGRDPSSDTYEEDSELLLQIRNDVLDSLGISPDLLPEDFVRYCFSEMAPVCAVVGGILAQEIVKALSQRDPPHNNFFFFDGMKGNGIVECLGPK
T1 sequence (Q9UBT2 whole entry): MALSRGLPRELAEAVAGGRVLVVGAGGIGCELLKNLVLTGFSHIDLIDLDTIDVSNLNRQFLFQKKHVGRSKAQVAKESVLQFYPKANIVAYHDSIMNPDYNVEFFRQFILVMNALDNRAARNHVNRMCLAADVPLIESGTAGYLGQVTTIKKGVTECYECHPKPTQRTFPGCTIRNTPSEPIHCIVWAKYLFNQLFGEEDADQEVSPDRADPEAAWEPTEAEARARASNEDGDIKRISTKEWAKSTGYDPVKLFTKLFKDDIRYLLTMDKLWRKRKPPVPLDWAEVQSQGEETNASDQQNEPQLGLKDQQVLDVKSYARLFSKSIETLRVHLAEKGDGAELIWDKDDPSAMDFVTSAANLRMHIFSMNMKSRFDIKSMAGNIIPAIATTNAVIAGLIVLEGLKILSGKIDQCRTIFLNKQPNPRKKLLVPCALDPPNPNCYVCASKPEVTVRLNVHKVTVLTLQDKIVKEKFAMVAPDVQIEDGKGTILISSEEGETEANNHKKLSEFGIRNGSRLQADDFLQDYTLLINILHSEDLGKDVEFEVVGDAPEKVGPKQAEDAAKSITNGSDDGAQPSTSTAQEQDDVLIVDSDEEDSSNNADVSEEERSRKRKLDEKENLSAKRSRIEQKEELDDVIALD
Serine/threonine-protein phosphatase, sequence (Q9BPW0 whole entry): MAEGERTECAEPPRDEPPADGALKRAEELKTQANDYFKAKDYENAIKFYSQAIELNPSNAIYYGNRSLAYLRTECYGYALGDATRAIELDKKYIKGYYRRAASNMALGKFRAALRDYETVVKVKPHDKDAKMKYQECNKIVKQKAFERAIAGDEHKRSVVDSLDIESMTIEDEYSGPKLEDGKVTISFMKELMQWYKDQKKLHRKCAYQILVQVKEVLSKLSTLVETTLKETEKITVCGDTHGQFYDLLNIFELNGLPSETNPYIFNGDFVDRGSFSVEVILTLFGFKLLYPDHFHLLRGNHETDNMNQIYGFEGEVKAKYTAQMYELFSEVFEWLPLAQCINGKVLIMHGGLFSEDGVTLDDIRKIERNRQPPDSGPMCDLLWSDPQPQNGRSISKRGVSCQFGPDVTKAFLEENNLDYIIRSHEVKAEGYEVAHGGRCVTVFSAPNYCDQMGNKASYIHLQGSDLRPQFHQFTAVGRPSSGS
Tumor necrosis factor, sequence (P01375 whole entry, the tested form may be a part): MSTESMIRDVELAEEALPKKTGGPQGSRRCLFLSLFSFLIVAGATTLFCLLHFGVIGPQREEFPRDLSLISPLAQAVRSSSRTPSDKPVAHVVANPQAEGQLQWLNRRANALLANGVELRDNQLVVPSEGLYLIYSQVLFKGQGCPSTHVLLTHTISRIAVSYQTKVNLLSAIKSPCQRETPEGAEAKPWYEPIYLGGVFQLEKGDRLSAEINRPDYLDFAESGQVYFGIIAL
Serine/threonine-protein phosphatase PP1-alpha catalytic subunit, sequence (P62136 whole entry): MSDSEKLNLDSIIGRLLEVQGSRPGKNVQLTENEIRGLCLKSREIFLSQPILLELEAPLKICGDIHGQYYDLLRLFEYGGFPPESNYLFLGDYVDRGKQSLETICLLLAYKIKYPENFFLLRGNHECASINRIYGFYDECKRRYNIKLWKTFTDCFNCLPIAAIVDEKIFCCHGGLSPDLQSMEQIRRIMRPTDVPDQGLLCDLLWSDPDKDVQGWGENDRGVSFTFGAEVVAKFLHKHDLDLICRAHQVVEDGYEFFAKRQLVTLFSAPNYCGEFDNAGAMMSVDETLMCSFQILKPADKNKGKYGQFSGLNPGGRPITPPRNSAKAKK

For the molecule `CC(=O)Nc1ccc(NC2=C/C(=N/S(=O)(=O)c3cccs3)c3ccccc3C2=O)cc1`, the figures for the EC50 in [1] and in experiment [9] were 3.58 µM (active) and 3.44 µM (active), respectively. Also, the IC50 – broadly, the concentration that inhibits the measured activity by half – in experiment [2] is 12.3 µM (not active); on SUMO-activating enzyme [3], 1.34 µM (active); at SUMO-activating enzyme [4], > 100 µM (inactive); in [5] it was > 67 µM (not active); in [6] it was 14.3 µM (inactive); in experiment [7] it was 1.48 µM (active). For the same molecule, the IC50 was 1.61 µM (active) in experiment [8] and 3.72 µM (active) at Hexokinase HKDC1. Further, in the experiment with INS1, the AC50 – broadly, the concentration at which the activity in the assay is half-maximal – was 4.23 µM (active).
Consider `Cc1ccc(NC(=O)c2ccc(CN3CCc4ccccc4C3)cc2)cc1`, for which the IC50 in [10] was > 20 µM (inactive); at Tumor necrosis factor, > 20 µM (inactive); in experiment [12] it was 3.44 µM (active); in the experiment on HEK293, > 20 µM (inactive). Also, the AC50 in experiment [11] is 5.75 µM (active).
On to `O=C(Nc1ccc(N2C(=O)c3ccccc3C2=O)c(Cl)c1)c1ccccn1`, for which the EC50 (as a rule, the concentration that produces a half-maximal response) in experiment [13] is 0.07 µM (active).
Regarding `COCc1cc(=O)oc2cc(NC(=O)c3ccc(C(C)(C)C)cc3)ccc12`, the AC50 in experiment [14] was 50.2 µM (active).

Values taken from ChEMBL document CHEMBL1201862, “PubChem BioAssay data set” (2004).
